According to paper PMC5456363 (PLoS ONE, 2017):
“And” between values parts separate entries of the source, which are not always exact repeats. Equal values may be shown once. “Also recorded” adds a separate entry of the source. Each block holds one compound with its values, some of them ahead of it. Non-standard residues stand in square brackets, D forms with d. Residues, ends and D or L forms follow the SMILES beside them. No end group written: not given here. *: point of attachment. Orn(α-tetramethylguanidino) = CN(C)C(=N[C@@H](CCCN)C(=O)*)N(C)C; Orn = NCCC[C@H](N)C(=O)O

Key:
[1] = Peptide stability in fresh blood taken by cardiac puncture into a syringe containing the peptide (blood, B); format: in vitro ADME, CD-1 mice; conditions: blood, 37°C, 1 h, 31.5 μmol/L; for remaining at 1 h: CD-1, mouse, fresh whole blood, read-out: intact peptide remaining relative to time zero
Procedure: (§1) All stability tests were performed at least in triplicates.

[2] = Peptide stability in direct serum (DS); format: in vitro ADME, CD-1 mice; conditions: 37°C, 1 h, 31.5 μmol/L; for remaining at 1 h, 31.5 μmol/L: CD-1, mouse, direct serum (supernatant of blood centrifuged immediately), read-out: intact peptide remaining relative to time zero
Procedure: as §1

[3] = Peptide stability in activated serum (AS); format: in vitro ADME, CD-1 mice; conditions: 37°C, 1 h, 31.5 μmol/L; for remaining at 1 h, 31.5 μmol/L: CD-1, mouse, read-out: intact peptide remaining relative to time zero
Procedure: as §1

[4] = Peptide stability in commercial serum (CS); format: in vitro ADME, mouse; conditions: commercial mouse serum, 37°C, 1 h, 31.5 μmol/L; for remaining at 1 h, 31.5 μmol/L: commercial pooled serum, read-out: intact peptide remaining relative to time zero
Procedure: as §1

[5] = Peptide stability in heparin plasma (HP); format: in vitro ADME, CD-1 mouse; conditions: 37°C, 1 h, 31.5 μmol/L
Procedure: as §1

[6] = Peptide stability in EDTA plasma (EP); format: in vitro ADME, CD-1 mouse; conditions: 37°C, 1 h, 31.5 μmol/L
Procedure: as §1

[7] = cited from earlier work
[8] = Stability and metabolites across fresh blood, serum and plasma (all six matrices); conditions: for Overall stability / Sequential stability: fresh blood, serum, and plasma
Procedure: Aqueous peptide solutions (3 g/L) were filled in a sterile syringe (1 mL, Dispomed Witt oHG, Gelnhausen, Deutschland) through the front end, the stainless-steel needle was attached, and blood (200 to 300 μL) was collected via cardiac puncture to obtain a peptide concentration of approximately 31,5 μmol/L. The syringe was carefully disconnected from the needle and sealed while keeping the needle in the heart. A second empty syringe was attached to the needle and 0.5 to 0.8 mL blood were collected. In parallel, the sealed syringe was gently shaken for one minute to mix the peptide solution with blood and further incubated on a Stuart Rotator SB3 (Barloworld, Scientific LTD, Stone, Staffordshire, U.K.) placed in an incubator at 37°C. […] The plasma sample designated as “blood” (B) was precipitated with trichloroacetic acid (TCA), as described below. Blood collected in the second syringe was transferred to a polypropylene tube (Eppendorf AG, Hamburg, Germany) and a BD Microtainer® serum separator tube (SST; Becton, Dickinson and Company). Polypropylene tubes were centrifuged immediately (12,000 x g, 2 to 4 min) to obtain “direct serum” (DS) as supernatant, whereas the serum separator tubes were incubated (room temperature, 1 h), centrifuged (12,000 x g, 2 min), and collected as “activated serum” (AS). Pooled mouse serum was purchased from PAA Laboratories GmbH (Pasching, Austria) and pooled CD-1 mouse plasma containing K2EDTA or lithium heparin were obtained from Innovative Research (Novi, MI, USA).
Peptides were mixed with serum or plasma to a final concentration of 31.5 μmol/L and incubated (37°C, 750 rpm; Thermomixer, Eppendorf AG, Hamburg, Germany). Aliquots (20 or 40 μL) taken after 0 and 60 min (0, 10 and 30 min for Api88) were mixed with TCA to obtain a final concentration of 3% (w/v) and incubated on ice (10 min). After centrifugation (12,000 x g, 5 min), the supernatant was neutralized with sodium hydroxide (1 mol/L) and stored at −20°C. Samples were analyzed by RP-HPLC on a Jupiter C18-column (internal diameter: 2 mm, length: 150 mm, particle size: 5 μm, pore size: 30 nm) using a linear aqueous acetonitrile gradient containing TFA (0.1%, v/v) as ion pair reagent. Peptides were detected by recording the absorbance at 214 nm and quantified by their peak areas relative to the initial peak areas (0 min). All stability tests were performed at least in triplicates.
Metabolites were identified on an Agilent 1100 LC system (Agilent Technologies, Santa Clara, CA, USA) coupled on-line via a UV-detector (absorbance recorded at 214 nm) to the electrospray ionization source on an ion trap mass spectrometer (ESI-IT-MS, Esquire HCT, Bruker Daltonics GmbH, Bremen, Germany). Samples were separated on an Aqua C18-column (inner diameter: 2 mm, length: 150 mm, particle size: 3 μm, pore size: 12.5 nm, Phenomenex; column temperature: 60°C) at a flow rate of 0.2 mL/min using a linear gradient of aqueous acetonitrile in the presence of formic acid (FA; 0.1%, v/v) as ion pair reagent. […] The ESI-IT-MS was operated in positive ion mode. Ionization was carried out at 365°C (source temperature) using nitrogen as curtain gas (40 psi) and dry gas (9 L/min). Mass spectra were acquired for an m/z range from 400 to 1300 at a scan rate of 8100 m/z-units per second in standard enhanced mode.

[9] = “direct serum” (DS): blood in polypropylene tubes centrifuged immediately; conditions: CD-1 mice, 37°C, up to 60 min
[10] = “activated serum” (AS): serum separator tubes incubated (room temperature, 1 h), centrifuged; conditions: CD-1 mice, 37°C, up to 60 min
[11] = blood collected via cardiac puncture into a syringe containing the peptide solution (“blood”, B); conditions: CD-1 mice, 37°C, up to 60 min
[12] = Pooled mouse serum (PAA Laboratories), commercial serum (CS); conditions: 37°C, up to 60 min
[13] = pooled CD-1 mouse plasma containing K2EDTA (EDTA plasma, EP); conditions: 37°C, up to 60 min
[14] = pooled CD-1 mouse plasma containing lithium heparin (heparin plasma, HP); conditions: 37°C, up to 60 min
human α-thrombin = experiment: human α-thrombin; conditions: up to 24 hours

Compound: DTEDKGEFLSEGGGVR
- fragment found [9]: FPA(2–16); TEDKGEFLSEGGGVR; also recorded: FPA(3–16); EDKGEFLSEGGGVR
- fragment found [10]: FPA(2–16); TEDKGEFLSEGGGVR; also recorded: FPA(3–16); EDKGEFLSEGGGVR
- fragment found [11]: FPA(2–16); TEDKGEFLSEGGGVR, one hour; also recorded: FPA(3–16); EDKGEFLSEGGGVR, one hour

Compound: VDKPPYLPRPRPPROIYNO-NH2 (H-VDKPPYLPRPRPPR[Orn]IYN[Orn]-NH2)
- cleaved bond [12]: Arg14-Orn15, major; also recorded: Asn18-Orn19, major; also recorded: Orn15-Ile16
- cleaved bond [13]: Arg14-Orn15, major; also recorded: Asn18-Orn19, major; also recorded: Orn15-Ile16
- cleaved bond [14]: Arg14-Orn15, major; also recorded: Asn18-Orn19, major; also recorded: Orn15-Ile16
- cleaved bond [9]: Arg14-Orn15, major; also recorded: Asn18-Orn19, major
- cleaved bond [10]: Arg14-Orn15, major; also recorded: Asn18-Orn19, major
- cleaved bond [11]: Arg14-Orn15, major; also recorded: Asn18-Orn19, major

Compound: VDKPPYLPRPRPPRRIYN-OH [Onc18(1–18)]
- Matrix in which the metabolite was identified ([8]; LC-MS, peak area at least 1% of initially incubated peptide, B blood, DS direct serum, AS activated serum, CS commercial serum, EP EDTA plasma, HP heparin plasma, All = all six): B, DS, AS, CS

Compound: gu-ONNRPVYIPRPRPPHPRL-NH2 ({Orn(α-tetramethylguanidino)}-NNRPVYIPRPRPPHPRL-NH2; SMILES CC[C@H](C)[C@H](NC(=O)[C@H](Cc1ccc(O)cc1)NC(=O)[C@@H](NC(=O)[C@@H]1CCCN1C(=O)[C@H](CCCNC(=N)N)NC(=O)[C@H](CC(N)=O)NC(=O)[C@H](CC(N)=O)NC(=O)[C@H](CCCN)N=C(N(C)C)N(C)C)C(C)C)C(=O)N1CCC[C@H]1C(=O)N[C@@H](CCCNC(=N)N)C(=O)N1CCC[C@H]1C(=O)N[C@@H](CCCNC(=N)N)C(=O)N1CCC[C@H]1C(=O)N1CCC[C@H]1C(=O)N[C@@H](Cc1c[nH]cn1)C(=O)N1CCC[C@H]1C(=O)N[C@@H](CCCNC(=N)N)C(=O)N[C@@H](CC(C)C)C(N)=O)
- cleaved bond (human α-thrombin): R17-L18, one hour
- cleaved bond [12]: Arg17-Leu18, major
- fragment found [12]: Api88(1–16); gu-ONNRPVYIPRPRPPHP-OH
- cleaved bond [13]: Arg17-Leu18, major
- cleaved bond [14]: Arg17-Leu18, major
- cleaved bond [9]: Arg17-Leu18, major
- fragment found [9]: Api88(1–16)
- cleaved bond [10]: Arg17-Leu18, major
- fragment found [10]: Api88(1–16)
- cleaved bond [11]: Arg17-Leu18, major
- fragment found [11]: Api88(1–16)

Compound: gu-ONNRPVYIPRPRPPHPRL-OH ({Orn(α-tetramethylguanidino)}-NNRPVYIPRPRPPHPRL-OH)
- fragment found (human α-thrombin): Api137(1–17), minor, 24 h
- fragment found [12]: Api137(1–17); gu-ONNRPVYIPRPRPPHPR-OH; also recorded: Api137(1–16); gu-ONNRPVYIPRPRPPHP-OH; also recorded: Api137(1–15)
- not cleaved [13]: ≥94% (one hour)
- fragment found [14]: Api137(1–17); also recorded: Api137(1–16); also recorded: Api137(1–15); also recorded: Api137(7–18)
- fragment found [9]: Api137(1–17); gu-ONNRPVYIPRPRPPHPR-OH; also recorded: Api137(1–16); also recorded: Api137(1–15)
- fragment found [10]: Api137(1–17); also recorded: Api137(1–16); also recorded: Api137(1–15)
- fragment found [11]: Api137(1–17); gu-ONNRPVYIPRPRPPHPR-OH; also recorded: Api137(1–16); also recorded: Api137(1–15); also recorded: Api137(7–18)

Second part, led by results:

- intact peptide remaining relative to time zero [1]: ≥ 94%
- intact peptide remaining relative to time zero [2]: ≥ 94%
- intact peptide remaining relative to time zero [3]: ≥ 94%
- remaining at 1 h, 31.5 μmol/L [4]: 78 ± 2%
- intact peptide remaining relative to time zero [5]: ≥ 94%
- intact peptide remaining relative to time zero [6]: ≥ 94%
- Overall stability [8]: High
- Sequential stability [8]: Blood = Plasma = Serum
Compound: CC[C@H](C)[C@H](NC(=O)[C@H](Cc1ccc(O)cc1)NC(=O)[C@@H](NC(=O)[C@@H]1CCCN1C(=O)[C@H](CCCNC(=N)N)NC(=O)[C@H](CC(N)=O)NC(=O)[C@H](CC(N)=O)NC(=O)[C@H](CCCN)N=C(N(C)C)N(C)C)C(C)C)C(=O)N1CCC[C@H]1C(=O)N[C@@H](CCCNC(=N)N)C(=O)N1CCC[C@H]1C(=O)N[C@@H](CCCNC(=N)N)C(=O)N1CCC[C@H]1C(=O)N1CCC[C@H]1C(=O)N[C@@H](Cc1c[nH]cn1)C(=O)N1CCC[C@H]1C(=O)N[C@@H](CCCN)C(=O)N[C@@H](CC(C)C)C(N)=O [Api134, gu-ONNRPVYIPRPRPPHPOL-NH2] ({Orn(α-tetramethylguanidino)}-NNRPVYIPRPRPPHP[Orn]L-NH2)
- half-life time in mouse serum ([7]; in vitro, mouse serum): 4 h

- remaining at 1 h [1]: 103 ± 11%
- remaining at 1 h, 31.5 μmol/L [2]: 94 ± 8%
- remaining at 1 h, 31.5 μmol/L [3]: 80 ± 12%
- remaining at 1 h, 31.5 μmol/L [4]: 64 ± 2%
- remaining at 1 h, 31.5 μmol/L ([5]; CD-1, mouse, pooled plasma containing lithium heparin, read-out: intact peptide remaining relative to time zero): 62 ± 8%
- remaining at 1 h, 31.5 μmol/L ([6]; CD-1, mouse, pooled plasma containing K2EDTA, read-out: intact peptide remaining relative to time zero): 47 ± 3%
- Overall stability [8]: Medium
- Sequential stability [8]: Blood = Serum > Plasma
Compound: CC[C@H](C)[C@H](NC(=O)[C@H](CCCN)NC(=O)[C@H](CCCNC(=N)N)NC(=O)[C@@H]1CCCN1C(=O)[C@@H]1CCCN1C(=O)[C@H](CCCNC(=N)N)NC(=O)[C@@H]1CCCN1C(=O)[C@H](CCCNC(=N)N)NC(=O)[C@@H]1CCCN1C(=O)[C@H](CC(C)C)NC(=O)[C@H](Cc1ccc(O)cc1)NC(=O)[C@@H]1CCCN1C(=O)[C@@H]1CCCN1C(=O)[C@H](CCCCN)NC(=O)[C@H](CC(=O)O)NC(=O)[C@@H](N)C(C)C)C(=O)N[C@@H](Cc1ccc(O)cc1)C(=O)N[C@@H](CC(N)=O)C(=O)N[C@@H](CCCN)C(N)=O [Onc72, VDKPPYLPRPRPPROIYNO-NH2] (H-VDKPPYLPRPRPPR[Orn]IYN[Orn]-NH2)
- serum half-life time ([7]; mouse serum): 3 h
- peptide remaining in serum after one hour, previous study ([7]; serum, 1 h): 80%

- cleaved bond [13]: Arg14-Arg15, major
- fragment found [13]: Onc18(1–15); VDKPPYLPRPRPPRR-OH
- cleaved bond [14]: Arg14-Arg15, major
- fragment found [14]: Onc18(2–14); DKPPYLPRPRPPR-OH
- cleaved bond [9]: Arg14-Arg15, major
- fragment found [9]: Onc18(1–18); VDKPPYLPRPRPPRRIYN-OH
- cleaved bond [10]: Arg14-Arg15, major
- fragment found [10]: Onc18(1–18); VDKPPYLPRPRPPRRIYN-OH
- cleaved bond [11]: Arg14-Arg15, major
- fragment found [11]: Onc18(1–18); VDKPPYLPRPRPPRRIYN-OH
Compound: H-VDKPPYLPRPRPPRRIYNR-NH2
- cleaved bond [12]: Arg14-Arg15, major; also recorded: Asn18-Arg19, major

- remaining at 1 h [1]: 42 ± 12%
- remaining at 1 h, 31.5 μmol/L [2]: 72 ± 4%
- remaining at 1 h, 31.5 μmol/L [3]: 53 ± 4%
- intact peptide remaining relative to time zero [4]: less than 13%
- remaining at 1 h, 31.5 μmol/L [4]: 12 ± 1%
- intact peptide remaining relative to time zero [5]: less than 13%
- intact peptide remaining relative to time zero [6]: less than 13%
- Overall stability [8]: Medium
- Sequential stability [8]: Blood = Serum > Plasma
Compound: H-VDKPPYLPRPRPPRRIYNR-NH2 [Onc18, VDKPPYLPRPRPPRRIYNR-NH2]
- serum half-life time ([7]; mouse serum): 0.333 h and 0.417 h
- fraction of peptide remaining in serum after 1 h, reported ([7]; serum, 1 h): around a quarter

- not cleaved [12]: less than 2% being degraded after 1 hour
- not cleaved [13]: at least 96% remaining after 1 hour
- not cleaved [14]: at least 96% remaining after 1 hour
- not cleaved [9]: at least 96% remaining after 1 hour
- not cleaved [10]: at least 96% remaining after 1 hour
- not cleaved [11]: at least 96% remaining after 1 hour
Compound: VDKPPYLPRPRPPRrIYNr-NH2 (H-VDKPPYLPRPRPPR[dR]IYN[dR]-NH2)

- not cleaved [13]: ≥94% intact peptide (one hour)
- fragment found [14]: Api134(7–18), minor
- not cleaved [11]: ≥94% intact peptide (one hour)
Compound: gu-ONNRPVYIPRPRPPHPOL-NH2 ({Orn(α-tetramethylguanidino)}-NNRPVYIPRPRPPHP[Orn]L-NH2)
- fragment found [12]: Api134(1–17); also recorded: Api134 (1–16); also recorded: Api134(7–18); YIPRPRPPHPOL-NH2, major; also recorded: Api134 (8–18); IPRPRPPHPOL-NH2, major
- fragment found [10]: Api134(1–17), minor; also recorded: Api134(1–15), minor; also recorded: Api134(7–18), minor
